Assays:
gastric epithelium = test: method of Goldemberg, ulceration by pylorus ligature (ulcerogenic effect); assay type: in vivo, Sprague-Dowley rats; conditions: for ulceration score Increase: increase over control (distilled water) score 2.0, mg/Kg: phenylbutazone 75, acid 47, acetylsalicylic acid 200; for ulceration Score: score 0=no hemorrhagic spots to 6=perforated ulcer, control (distilled water) 2.0, mg/Kg: phenylbutazone 75, acid 47, acetylsalicylic acid 200, phthalidyl ester 69; for ulcerogenic effect (in words): summary statement, b45 relative to the respective acid
Experimental: 2 To compare the effect on ulcer of the new compound regarding to other antiinflammatory drugs, the method of Goldemberg (ulceration by pylorus ligature) (Arzneim. Forsch. (Drug Res.) 26, 3, 1976) to Sprague-Dowley rats (400-600 g of weight), was performed. The ulceration of the gastric epithelium was observed and evaluated in accordance to the following score; 0=no hemorrhagic spots; 1=some isolated hemorrhagic spots; 2=redness of the gastric epithelium; 3=1 to 5 small ulcers with a diameter greater than 3 mm; 6=perforated ulcer.

[1] = background statement; cited from earlier work
[2] = tested on: carraghenine-provoked aedema of the paw of rat; test: carraghenine-provoked aedema of the paw of rat (antiinflammatory activity); assay type: in vivo; conditions: for % AEDEMA INHIBITION 3 hr / % AEDEMA INHIBITION 4 hr: rat paw, TNA 47 mg/Kg, PTP 69 mg/Kg (equivalent to 47 mg of the acid)
Description: 1 By means of the test involving the carraghenine-provoked aedema of the paw of rat (Winter, C. A., Proceeding Soc. Exp. Biol. Med., III, 544, 1962) the antiinflammatory activities of phthalidyl 2-(3'-trifluormethylanilino)-pyridine-3-carboxylate (PTP) and 2(3'-trifluormethylanilino) nicotinic acid (TNA), were compared.

[3] = background statement; cited from earlier work; remark: listed apart in the source
oral tolerability = assay type: in vivo

| Compound | ulceration score Increase (gastric epithelium) | ulceration Score (gastric epithelium) | ulcer provocation (in words) [1] | % AEDEMA INHIBITION 3 hr [2] | % AEDEMA INHIBITION 4 hr [2] | antiinflammatory activity (in words) [3] | ulcerogenic effect (in words) (gastric epithelium) | ulcerogenic effect (in words) (gastric epithelium; listed as phthalidyl ester) | antiinflammatory activity compared with the acid (in words) ([2]; relative to 2(3'-trifluormethylanilino) pyridine-3-carboxylic acid) | anti-inflammatory activity (in words) ([2]; summary statement) | oral tolerability (in words) (oral tolerability) |
| --- | --- | --- | --- | --- | --- | --- | --- | --- | --- | --- | --- |
| CC(=O)Oc1ccccc1C(=O)O [Acetylsalicylic acid] | 1.9 | 3.9 |  |  |  |  |  |  |  |  |  |
| O=C(O)c1cccnc1Nc1cccc(C(F)(F)F)c1 [TNA, 2(3'-trifluormethylanilino) nicotinic acid] | 1.3 | 3.3 | provoke ulcers | 25.6% | 31.8% | relevant antiinflammatory activity |  |  |  |  |  |
| CCCCC1C(=O)N(c2ccccc2)N(c2ccccc2)C1=O [Phenylbutazone] | 2.3 | 4.3 |  |  |  |  |  |  |  |  |  |
| O=C1OC(OC(=O)c2cccnc2Nc2cccc(C(F)(F)F)c2)c2ccccc21 (stereo not drawn) [PTP, phthalidyl 2-(3'-trifluormethylanilino)-pyridine-3-carboxylate] |  | 2.0 |  | 32% | 37.8% |  | less ulcerogenic than respective acid | without ulcerogenic effect | antiinflammatory activity greater than the acid | anti-inflammatory activity | orally well tolerated |
